ChEMBL document CHEMBL5579808, “Development of 1,5-diarylpyrazoles as EGFR/JNK-2 dual inhibitors: design, synthesis, moleecular docking, and bioactivity evaluation” (Bioorg Med Chem Lett, 2024)
Active and inactive are the calls of the source. The rule behind the calls is not given here.

Experiments:
HeLa [1] = assay: Growth inhibition of human HeLa cells at 100 uM by WST-8 assay relative to control; type: functional; settings: read-out: GI
DLD-1 [2] = assay: Growth inhibition of human DLD-1 cells at 100 uM by WST-8 assay relative to control; type: functional; settings: read-out: GI
K562 [3] = assay: Growth inhibition of human K562 cells at 100 uM by WST-8 assay relative to control; type: functional; settings: read-out: GI
[4] = Growth inhibition of human SUIT-2 cells at 100 uM by WST-8 assay relative to control; type: functional; settings: read-out: GI
HepG2 [5] = assay: Growth inhibition of human HepG2 cells at 100 uM by WST-8 assay relative to control; type: functional; settings: read-out: GI
[6] = molecular target: Epidermal growth factor receptor (Mus musculus, UniProt Q01279); assay: Inhibition of recombinant mouse EGFR by ELISA
Epidermal growth factor receptor, sequence (Q01279 whole entry): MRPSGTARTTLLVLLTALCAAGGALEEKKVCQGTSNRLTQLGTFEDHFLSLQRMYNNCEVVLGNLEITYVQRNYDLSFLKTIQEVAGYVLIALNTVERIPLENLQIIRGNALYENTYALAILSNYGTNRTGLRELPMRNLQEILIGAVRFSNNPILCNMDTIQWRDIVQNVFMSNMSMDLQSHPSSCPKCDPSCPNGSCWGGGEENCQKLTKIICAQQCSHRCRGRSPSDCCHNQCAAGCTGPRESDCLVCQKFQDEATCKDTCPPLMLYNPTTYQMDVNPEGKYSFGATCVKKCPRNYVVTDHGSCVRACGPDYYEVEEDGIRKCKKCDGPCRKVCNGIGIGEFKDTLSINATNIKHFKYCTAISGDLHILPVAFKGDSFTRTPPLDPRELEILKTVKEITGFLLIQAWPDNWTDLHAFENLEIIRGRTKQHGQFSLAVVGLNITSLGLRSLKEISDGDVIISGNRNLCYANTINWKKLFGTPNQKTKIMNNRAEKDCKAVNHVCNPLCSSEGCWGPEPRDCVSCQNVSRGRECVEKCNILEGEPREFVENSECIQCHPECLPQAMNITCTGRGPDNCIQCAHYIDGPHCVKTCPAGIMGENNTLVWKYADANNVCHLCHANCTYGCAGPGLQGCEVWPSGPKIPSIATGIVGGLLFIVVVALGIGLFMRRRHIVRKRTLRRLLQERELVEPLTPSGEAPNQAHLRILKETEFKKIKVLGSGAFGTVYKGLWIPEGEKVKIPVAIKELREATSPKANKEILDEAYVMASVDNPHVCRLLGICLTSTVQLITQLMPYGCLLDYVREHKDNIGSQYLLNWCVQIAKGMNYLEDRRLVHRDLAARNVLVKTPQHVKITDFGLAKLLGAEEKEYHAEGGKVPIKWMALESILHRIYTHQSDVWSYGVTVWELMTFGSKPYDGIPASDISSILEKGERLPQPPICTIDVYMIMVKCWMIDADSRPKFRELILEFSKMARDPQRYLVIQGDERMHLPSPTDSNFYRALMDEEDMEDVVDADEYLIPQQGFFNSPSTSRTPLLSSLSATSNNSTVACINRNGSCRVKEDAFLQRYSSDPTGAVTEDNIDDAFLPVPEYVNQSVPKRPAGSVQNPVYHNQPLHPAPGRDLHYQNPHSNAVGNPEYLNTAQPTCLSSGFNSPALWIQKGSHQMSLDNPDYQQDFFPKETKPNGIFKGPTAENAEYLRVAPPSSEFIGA

DLD-1 [7] = assay: Antiproliferative activity against human DLD-1 cells by WST-8 assay; type: functional, cell-based
HeLa [8] = assay: Antiproliferative activity against human HeLa cells by WST-8 assay; type: functional, cell-based
K562 [9] = assay: Antiproliferative activity against human K562 cells by WST-8 assay; type: functional, cell-based
[10] = Antiproliferative activity against human SUIT-2 cells by WST-8 assay; type: functional, cell-based
HepG2 [11] = assay: Antiproliferative activity against human HepG2 cells by WST-8 assay; type: functional, cell-based
HeLa [12] = assay: Induction of cell cycle arrest at G1 phase in human HeLa cells at IC50 incubated for 24 hrs by PI staining based flow cytometry (reference value: 68 %); type: functional
HeLa [13] = assay: Induction of cell cycle arrest at S phase in human HeLa cells at IC50 incubated for 24 hrs by PI staining based flow cytometry (reference value: 8 %); type: functional
HeLa [14] = assay: Induction of cell cycle arrest at G2 phase in human HeLa cells at IC50 incubated for 24 hrs by PI staining based flow cytometry (reference value: 7 %); type: functional
HeLa [15] = assay: Induction of apoptosis in human HeLa cells assessed as total cells at half of IC50 incubated for 24 hrs by Annexin V-FITC/PI staining based flow cytometry (reference value: 1.8 %); type: functional
HeLa [16] = assay: Induction of apoptosis in human HeLa cells assessed as early apoptotic cells at half of IC50 incubated for 24 hrs by Annexin V-FITC/PI staining based flow cytometry (reference value: 0 %); type: functional
HeLa [17] = assay: Induction of apoptosis in human HeLa cells assessed as late apoptotic cells at half of IC50 incubated for 24 hrs by Annexin V-FITC/PI staining based flow cytometry (reference value: 0 %); type: functional
HeLa [18] = assay: Induction of apoptosis in human HeLa cells assessed as necrotic cells at half of IC50 incubated for 24 hrs by Annexin V-FITC/PI staining based flow cytometry (reference value: 1.8 %); type: functional
[19] = molecular target: Mitogen-activated protein kinase 9 (Homo sapiens, UniProt P45984); assay: Inhibition of JNK2 (unknown origin) incubated for 90 mins by ELISA
HeLa [20] = assay: Induction of cell cycle arrest at G1 phase in human HeLa cells at IC50 incubated for 48 hrs by PI staining based flow cytometry (reference value: 68 %); type: functional
HeLa [21] = assay: Induction of cell cycle arrest at S phase in human HeLa cells at IC50 incubated for 48 hrs by PI staining based flow cytometry (reference value: 8 %); type: functional
HeLa [22] = assay: Induction of cell cycle arrest at G2 phase in human HeLa cells at IC50 incubated for 48 hrs by PI staining based flow cytometry (reference value: 7 %); type: functional
HeLa [23] = assay: Induction of apoptosis in human HeLa cells assessed as total cells at 2 times IC50 incubated for 24 hrs by Annexin V-FITC/PI staining based flow cytometry (reference value: 1.8 %); type: functional
HeLa [24] = assay: Induction of apoptosis in human HeLa cells assessed as early apoptotic cells at 2 times IC50 incubated for 24 hrs by Annexin V-FITC/PI staining based flow cytometry (reference value: 0 %); type: functional
HeLa [25] = assay: Induction of apoptosis in human HeLa cells assessed as late apoptotic cells at 2 times IC50 incubated for 24 hrs by Annexin V-FITC/PI staining based flow cytometry (reference value: 0 %); type: functional
HeLa [26] = assay: Induction of apoptosis in human HeLa cells assessed as necrotic cells at 2 times IC50 incubated for 24 hrs by Annexin V-FITC/PI staining based flow cytometry (reference value: 1.8 %); type: functional

| SMILES | inhibition of growth at 100 µM (HeLa [1]) [%] | inhibition of growth at 100 µM (DLD-1 [2]) [%] | inhibition of growth at 100 µM (K562 [3]) [%] | inhibition of growth at 100 µM [4] [%] | inhibition of growth at 100 µM (HepG2 [5]) [%] | IC50 [6] [µM] | IC50 (DLD-1 [7]) [µM] | IC50 (HeLa [8]) [µM] | IC50 (K562 [9]) [µM] | IC50 [10] [µM] | IC50 (HepG2 [11]) [µM] | further results |
| --- | --- | --- | --- | --- | --- | --- | --- | --- | --- | --- | --- | --- |
| COc1ccc(-c2cc(C(=O)Oc3ccc(C=O)cc3OC)nn2-c2ccccc2)cc1OC | 0 | 96 | 58 | 86 | 74 |  |  |  |  |  |  |  |
| CNC(=O)c1cc(Oc2ccc(NC(=O)Nc3ccc(Cl)c(C(F)(F)F)c3)cc2)ccn1 [SORAFENIB] |  |  |  |  |  | 3.5 |  |  |  |  |  |  |
| COc1cc(C=O)ccc1OC(=O)c1cc(-c2ccc(Cl)cc2)n(-c2ccccc2)n1 | 51 | 74 | 66 | 92 | 20 |  |  |  |  |  |  |  |
| COc1cc(C=O)ccc1OC(=O)c1cc(-c2ccc(C)cc2)n(-c2ccc(S(N)(=O)=O)cc2)n1 | 95 | 100 | 95 | 87 | 101 | 50 | 17 | 14 | 7.6 | 17 | 2.7 | Activity (HeLa [12]): 4%; Activity (HeLa [13]): 83%; Activity (HeLa [14]): 7%; Activity (HeLa [15]): 25%; Activity (HeLa [16]): 0.4%; Activity (HeLa [17]): 19%; Activity (HeLa [18]): 5.9%; IC50 [19]: 2000 nM |
| Cc1ccc(-c2cc(C(=O)Nc3ccc(S(N)(=O)=O)cc3)nn2-c2ccccc2)cc1 | 0 | 99 | 65 | 96 | 101 | > 1000 | 16.1 | 16.7 |  | 13 | 3.6 | inhibition [19]: inactive |
| COc1cc(C=O)ccc1OC(=O)c1cc(-c2ccc(C)cc2)n(-c2ccccc2)n1 | 84 | 70 | 79 | 89 | 50 |  |  | 15 | 14.8 |  | 8.9 | Activity (HeLa [12]): 64%; Activity (HeLa [20]): 59%; Activity (HeLa [13]): 8%; Activity (HeLa [21]): 5%; Activity (HeLa [14]): 21%; Activity (HeLa [22]): 23%; Activity (HeLa [23]): 86%; Activity (HeLa [24]): 5.9%; Activity (HeLa [25]): 48%; Activity (HeLa [26]): 33% |
| COc1cc(C=O)ccc1OC(=O)c1cc(-c2ccc(Cl)cc2)n(-c2ccc(S(N)(=O)=O)cc2)n1 | 51 | 97 | 85 | 94 | 54 |  | 5 |  | 17.1 | 49.8 |  |  |
| COc1cccc2c1C(=O)c1c(O)c3c(c(O)c1C2=O)C[C@@](O)(C(C)=O)C[C@@H]3O[C@H]1C[C@H](N)[C@H](O)[C@H](C)O1 [DAUNORUBICIN] | 100 | 84.2 | 100 | 92 | 100 |  | 30 | 0.1 | 13.3 | 9 | 22 |  |
| COc1ccc(-c2cc(C(=O)Nc3ccc(S(C)(=O)=O)cc3)nn2-c2ccccc2)cc1OC | 19 | 74 | 62 | 89 | 37 |  |  |  |  |  |  |  |
| Cc1ccc(-c2cc(C(=O)Nc3ccc(S(C)(=O)=O)cc3)nn2-c2ccccc2)cc1 | 78 | 87 | 58 | 87 | 94 | 110 | 22 | 63 |  |  | 10 | IC50 [19]: > 200000 nM |
| CS(=O)(=O)c1ccc(NC(=O)c2cc(-c3ccccc3)n(-c3ccccc3)n2)cc1 | 28 | 81 | 32 | 86 | 41 |  | 33.1 |  |  |  |  |  |
| COc1ccc(-c2cc(C(=O)Nc3ccc(S(N)(=O)=O)cc3)nn2-c2ccccc2)cc1OC | 51 | 56 | 58 | 91 | 90 |  |  |  |  |  |  |  |
| COc1ccc(-c2cc(C(=O)Oc3ccc(C=O)cc3OC)nn2-c2ccc(S(N)(=O)=O)cc2)cc1 | 78 | 104 | 85 | 95 | 82 | > 1000 | 5.6 | 31 | 14.9 | 5 | 7.8 | IC50 [19]: 900 nM |
| COc1ccc(-c2cc(C(=O)Nc3ccc(S(N)(=O)=O)cc3)nn2-c2ccccc2)cc1 | 74 | 69 | 26 | 78 | 26 |  |  |  |  |  |  |  |
| COc1cc(C=O)ccc1OC(=O)c1cc(-c2ccccc2)n(-c2ccccc2)n1 | 31 | 71 | 52 | 91 | 60 |  |  |  |  |  |  |  |
| CS(=O)(=O)c1ccc(NC(=O)c2cc(-c3ccc(Cl)cc3)n(-c3ccccc3)n2)cc1 | 101 | 98 | 88 | 94 | 50 | 1.7 | 5.7 | 16 | 21.8 | 25 |  | Activity (HeLa [12]): 6%; Activity (HeLa [13]): 82%; Activity (HeLa [14]): 6%; Activity (HeLa [23]): 94%; Activity (HeLa [24]): 1.4%; Activity (HeLa [25]): 75%; Activity (HeLa [26]): 18%; IC50 [19]: > 200000 nM |
| NS(=O)(=O)c1ccc(NC(=O)c2cc(-c3ccccc3)n(-c3ccccc3)n2)cc1 | 12 | 64 | 89 | 91 | 107 |  |  |  |  | 18 | 5.9 |  |
| COc1cc(C=O)ccc1OC(=O)c1cc(-c2ccccc2)n(-c2ccc(S(N)(=O)=O)cc2)n1 | 79 | 100 | 82 | 95 | 84 |  |  | 27 | 17.2 |  | 38 |  |
| NS(=O)(=O)c1ccc(NC(=O)c2cc(-c3ccc(Cl)cc3)n(-c3ccccc3)n2)cc1 | 0 | 94 | 86 | 99 | 27 | 2.7 | 29.8 |  | 15.4 | 49.7 |  | IC50 [19]: 3000 nM |
| COc1ccc(-c2cc(C(=O)Oc3ccc(C=O)cc3OC)nn2-c2ccccc2)cc1 | 30 | 61 | 61 | 91 | 11 |  |  |  |  |  |  |  |
| COc1ccc(-c2cc(C(=O)Nc3ccc(S(C)(=O)=O)cc3)nn2-c2ccccc2)cc1 | 76 | 64 | 41 | 90 | 62 |  |  |  |  | 41 |  |  |
| COc1ccc(-c2cc(C(=O)Oc3ccc(C=O)cc3OC)nn2-c2ccc(S(N)(=O)=O)cc2)cc1OC | 70 | 75 | 77 | 66 | 92 |  |  |  |  |  |  |  |
